Experimental data from patent US6375974B1 (Mitsui Takeda Chemicals, Inc., priority 1998, dated 2002).

How the values were obtained:
[1] = ethanol; cited from earlier work
[2] = dissolution of fine grains in water by slow stirring; format: physicochemical; settings: 15 g fine grains (80-mesh pass) in 10 l of water at 20° C., slowly stirred for 24 hours
Excerpt: Because of the low dissolution rate, fumaric acid cannot be completely dissolved but remains as fine grains giving a slurry in these conventional methods. […] When such an aqueous fumaric acid solution is employed in sterilizing meats, the remaining fumaric acid grains sometimes damage the meat tissue.

[3] = test system: gram negative bacteria; settings: cited from earlier work
[4] = test system: various bacteria such as E. coli 0-157; settings: at 1.0% and 1.5%; cited from earlier work
[5] = test system: various gram negative bacteria; settings: cited from earlier work
[6] = test system: Escherichia coli O-157; settings: cited from earlier work
[7] = cited from earlier work

CCO [ethanol]
time after which a bactericidal effect was exerted [1]: 60 min

O=C(O)/C=C/C(=O)O [fumaric acid]
dissolution of fine grains [2]: not completely dissolved
growth of gram negative bacteria [3]: inhibited the growth
bactericidal effect compared with other organic acids [4]: exceeding those of other organic acids
bactericidal effect ([5]; gram negative bacteria (E. coli, salmonella, Shigella, etc.), short contact time): potent bactericidal effect
antibacterial effect ([5]; within a short time, compared with other organic acids): strong antibacterial effect
bactericidal effect [6]: strong bactericidal effect

O=C([O-])/C=C/C(=O)O.[Na+] [monosodium fumarate]
concentration showing bactericidal effects ([7]; aqueous solution): 0.8%
bactericidal effects ([7]; concentration of 0.6% or less): did not show bactericidal effects
